Data published in patent US5070210A, “Novel ketenimines as intermediates for insecticides” (ICI Americas Inc., priority 1990, dated 1991).

How the values were obtained:
Format in all cases: in vivo
[1] = test system: Housefly [Musca domestica]; test: Housefly insecticidal test; conditions: μg per 25 female flies; mortality after 48 hours
Method in brief: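 Dose range started at 100 μg per 25 female flies and went downward. Insects (1-2 days old) contacted a dried acetone/peanut-oil deposit in dishes; LC50 values come from dosage-mortality curves at 48 h.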

[2] = test system: Tobacco Budworm [Heliothis virescens (Fabricius)] larvae; test: Tobacco budworm contact test; conditions: second-instar larvae, percent in solution, 5 days
Method in brief: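 Cotton cotyledons dipped 2–3 s in compound in 50-50 acetone-water, dried, then infested with 5 second-instar larvae and held 5 days at high humidity. Mortality scored; LC50 from dosage-mortality curves, expressed as percent compound in solution, concentrations from 0.1% downward.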

[3] = test system: Tobacco Budworm [Heliothis virescens (Fabricius)] eggs; test: Tobacco budworm egg test; conditions: 2-day old eggs, percent in solution
Method in brief: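 Paper towel patches bearing 2-day old eggs were dipped in acetone solutions of compound, then set in petri dishes over larval rearing medium at 78° F. Mortality was scored once all control eggs had hatched and larvae were feeding. LC50, from dosage-mortality curves, is given as percent compound in solution.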

[4] = test system: Beet Armyworm (Spodoptera exigua); test: Beet armyworm insecticidal test; conditions: second-instar larvae, percent in solution; five days
Method in brief: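 Sugar beet leaves dipped 2–3 s in compound diluted in 50:50 acetone-water, dried, then infested with five second-instar larvae in humid petri dishes. Mortality scored at 5 days; concentrations from 0.1% downward. LC50 from dosage-mortality curves, expressed as percent compound in solution.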

[5] = test system: Cabbage Looper [Trichoplusia ni (Hubner)]; test: Cabbage looper insecticidal test; conditions: second-instar larvae, percent in solution; 3-5 days
Method in brief: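 Compounds in 50-50 acetone-water were applied by dipping squash cotyledons (about 1×1.5 in) for 2-3 s; dried leaves went into petri dishes on moist filter paper with 5 second-instar larvae under high humidity. Mortality was scored after 3-5 days; LC50 from dosage-mortality curves, as percent compound in solution.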

[6] = test system: Aster Leafhopper [Macrosteles fascifrens (Stal)]; test: Aster leafhopper insecticidal test; conditions: adults/nymphs, percent in solution; 48 hours
Method in brief: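 Three ~10 cm oat seedlings per cup were dipped 2-3 seconds in 50-50 acetone-water compound solutions, dried, and caged with ten adult/nymph leafhoppers. Mortality was counted after 48 hours at concentrations from 0.05% downward. LC50, as percent compound in solution, came from dosage-mortality curves.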

[7] = test system: Maize weevil [Sitophilus Zeamais (Motschulsky)]; test: Maize weevil insecticidal test; conditions: adult weevils, percent in solution; 48 hours
Method in brief: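 LC50, in percent of compound in solution, was derived from dosage-mortality curves after 48 h at about 25 °C. Ten adult weevils per container fed on four corn seeds briefly immersed in acetone:water (50:50) solutions of up to 0.01% and dried.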

[8] = test system: Rice water weevil [Lissorhoptrus oryzophilus (Kuschel)]; test: Rice water weevil insecticidal test; conditions: topical, μg per weevil; 48 hours
Method in brief: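 Female adult weevils (ten per dose) received 1 μl acetone droplets topically on the ventral abdomen, then were held with rice foliage and wet cotton at about 25 °C. Mortality scored at 48 h; LC50 in μg per weevil from dosage-mortality curves, top dose 2.5 μg per weevil.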

[9] = test system: Black Bean Aphid [Aphis fabae (Scop.)]; test: Black bean aphid insecticidal test; conditions: percent of test compound in sprayed solution; 48 hours
Description: The compounds in Tables 1 and 2 above were tested for insecticidal activity using the following testing procedures. LC50 values, based on the results of these tests and calculated according to dosage-mortality curves, are expressed in Table 3.
Black Bean Aphid [Aphis fabae (Scop.)]:
Nasturtium plants (Tropaeolum sp.) approximately 5 cm tall, were transplanted into sandy loam soil in small cups and infested with 25-50 black bean aphids of mixed ages. Twenty-four hours later they were sprayed to the point of runoff with 50-50 acetone-water solutions of the test compounds. Treated plants were held in the greenhouse and mortality was recorded after 48 hours. Test concentrations ranged from 0.05% downward. The LC-50 value is expressed below in Table 3 under the heading "BBA" in terms of percent of the test compound in the sprayed solution.

SMILES | LC50, HF [1] [µg] | LC50, TBW, C (TBW-C) [2] [%] | LC50, TBW, E (TBW-E) [3] [%] | LC50, BAW [4] [%] | LC50, CL [5] [%] | LC50, LH [6] [%] | LC50, MW [7] [%] | LC50, RWW [8] [µg] | LC50, BBA [9] [%]
CC(C)C(=Nc1ccc(OC(F)(F)F)cc1)OCc1ccc(F)c(Oc2ccc(F)cc2)c1 [Compound 286] | 34 | 0.00017 | 0.005 | 0.0004 | 0.000024 | 0.0006 | 0.0039 | 0.09 | –
CC(C)C(=Nc1ccc(OC(F)(F)F)cc1)OCc1ccc(F)c(Oc2ccc(Cl)cc2)c1 [Compound 323] | > 100 | 0.00065 | 0.045 | 0.0025 | 0.0006 | 0.05 | 0.0075 | 0.16 | –
CC(C)C(=Nc1ccc(OC(F)(F)F)c(Cl)c1)OCc1cc(F)cc(Oc2ccc(F)cc2)c1 [Compound 328] | > 100 | – | > 0.1 | – | 0.03 | – | – | – | > 0.05
CC(C)C(=Nc1ccc(F)c(Cl)c1F)OCc1cccc(Oc2ccc(F)cc2)c1 [Compound 352] | 4.6 | 0.0004 | > 0.1 | > 0.1 | 0.000065 | 0.0004 | 0.0075 | > 2.5 | –
